Laboratory results as given in paper PMC4306533, “Distinct Features of Cap Binding by eIF4E1b Proteins” (Journal of Molecular Biology, 2015).

Legend:
[1] = target: T1, XeIF4E1a (Xenopus laevis, UniProt P48597); assay: time-synchronized fluorescence titration of cap analogue binding; conditions: for ΔΔG^o + glycerol XeIF4E1a / ΔΔG^o − glycerol XeIF4E1a: change relative to m^7GTP; for ΔΔG^o + glycerol XeIF4E1a / Kas + glycerol XeIF4E1a: 10% glycerol; for ΔΔG^o − glycerol XeIF4E1a: without glycerol; for Kas + glycerol XeIF4E1a / Kas − glycerol XeIF4E1a: equilibrium association constant; for Kas − glycerol XeIF4E1a: buffer without glycerol
T1 construct: made in house; host or cells: E. coli Rosetta2(DE3)
T1 sequence (P48597 whole entry): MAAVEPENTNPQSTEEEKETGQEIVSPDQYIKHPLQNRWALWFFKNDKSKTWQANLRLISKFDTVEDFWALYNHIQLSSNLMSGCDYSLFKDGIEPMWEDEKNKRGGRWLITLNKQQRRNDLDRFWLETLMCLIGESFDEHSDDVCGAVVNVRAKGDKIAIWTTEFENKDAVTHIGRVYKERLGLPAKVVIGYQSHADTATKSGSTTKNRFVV
From the text: (§1) The time-synchronized fluorescence titration method, widely used to determine the affinity constants of cap–eIF4E complexes [[20,22–26]], measures the quenching of the intrinsic fluorescence of tryptophan residues due to cap binding (Fig. S2). Knowledge of the equilibrium association constant Kas enables the calculation of the free-energy changes involved in the interaction between eIF4E and ligand, according to the standard equation ΔG° = − RTlnKas.
(§2) For human eIF4E1a and eIF4E1b and also for Xenopus eIF4E1a and its mutated forms, measurements were carried out using 0.1 μM protein in 50 mM Hepes/KOH (pH 7.2), 134.5 mM KCl, 0.5 mM EDTA and 1 mM DTT. For Xenopus eIF4E1b(ΔN27), the concentration was 0.2 μM and glycerol was added to the buffer to 10% (v/v) final concentration. […] Fluorescence of measured samples was excited at 280 nm (2.5 nm bandwidth) and detected at 337 nm or 330 nm (4 nm bandwidth), thus reducing the signal originated from the free cap analogues. Measurements were carried out on a LS-55 spectrofluorometer (Perkin Elmer Co.) using freshly prepared proteins, and the fluorescence intensities were corrected for sample dilution and the inner filter effect.
(§3) Equilibrium association constants (Kas) were determined by fitting the theoretical dependence of fluorescence intensity on the total concentration of the cap analogue to the experimental data points, according to the equation described previously (see Ref. [22] and Fig. S2c).
(§4) The final Kas was calculated as a weighted average of 2–6 independent titrations with the weights taken as the reciprocal of the numerical standard deviation squared. Numerical, nonlinear least-squares regression analysis was performed using Origin 6.0 (Microcal Software Inc.). Obtained association constants were used to determine the Gibbs free energy according to the standard equation ΔG° = − RTlnKas.

[2] = system: XeIF4E1a; assay: as above; design: species or system Xenopus laevis; conditions: without glycerol
From the text: as §1, §2, §3, §4

[3] = target: T2, heIF4E1a (Homo sapiens, UniProt P06730); assay: as above; conditions: for ΔΔG^o − glycerol heIF4E1a: change relative to m^7GTP, without glycerol; for Kas − glycerol heIF4E1a: equilibrium association constant, buffer without glycerol
T2 construct: made in house; host or cells: E. coli Rosetta2(DE3)
T2 sequence (P06730 whole entry): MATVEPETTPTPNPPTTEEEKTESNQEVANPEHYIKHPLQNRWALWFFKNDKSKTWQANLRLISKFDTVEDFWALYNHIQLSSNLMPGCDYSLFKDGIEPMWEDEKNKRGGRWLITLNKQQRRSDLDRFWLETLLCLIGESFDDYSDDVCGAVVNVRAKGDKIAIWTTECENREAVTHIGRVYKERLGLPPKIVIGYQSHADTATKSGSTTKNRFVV
From the text: as §1, §2, §3, §4

[4] = target: T3, heIF4E1b (Homo sapiens, UniProt A6NMX2); assay: as above; conditions: for ΔΔG^o − glycerol heIF4E1b: change relative to m^7GTP, without glycerol; for Kas − glycerol heIF4E1b: equilibrium association constant, buffer without glycerol
T3 construct: made in house; host or cells: E. coli Rosetta2(DE3)
T3 sequence (A6NMX2 1-242): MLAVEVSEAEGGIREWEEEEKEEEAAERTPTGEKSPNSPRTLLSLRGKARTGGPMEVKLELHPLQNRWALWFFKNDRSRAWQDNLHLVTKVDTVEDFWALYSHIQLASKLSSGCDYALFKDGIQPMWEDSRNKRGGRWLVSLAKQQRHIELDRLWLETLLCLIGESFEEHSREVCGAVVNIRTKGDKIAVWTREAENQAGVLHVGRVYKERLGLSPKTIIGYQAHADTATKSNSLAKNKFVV
From the text: as §1, §2, §3, §4

[5] = system: heIF4E1b; assay: as above; design: species or system human; conditions: without glycerol
From the text: as §1, §2, §3, §4

[6] = system: XeIF4E1bΔN27; assay: as above; design: species or system Xenopus laevis; conditions: for Ratio Kas (X4E1a) to Kas (X4E1bΔN27) / ΔΔG^o + glycerol XeIF4E1bΔN27 / Kas + glycerol XeIF4E1bΔN27: 10% glycerol; for ΔΔG^o + glycerol XeIF4E1bΔN27: change relative to m^7GTP; for Kas + glycerol XeIF4E1bΔN27: equilibrium association constant
From the text: as §1, §2, §3, §4

[7] = target: T4, X4E1a1 (E101S) (Xenopus laevis, UniProt P48597, E101S); assay: fluorescence titration, XeIF4E1a mutant; format: binding; conditions: mutant (E101S) of XeIF4E1a
T4 construct: made in house; host or cells: E. coli Rosetta2(DE3)
T4 sequence (P48597 whole entry E101S): as the sequence (P48597 whole entry) above, with E101S counted along it
From the text: (§5) We tested the effect on cap-binding activity of these positions in the fluorescence assay with six mutated recombinant versions of Xenopus eIF4E1a (Fig. S4). The amino acids were introduced in XeIF4E1a sequentially in the order: E101S/K102R/S195A/M82S/T206L/T207S (numbering of the XeIF4E1a sequence is shifted backward by 4 amino acids relative to XeIF4E1b). […] The biggest contribution to the weaker cap binding of XeIF4E1a, in each case about 20%, resulted from changing Glu101 to Ser and Thr206 to Leu coupled with Thr207 to Ser, with the remaining mutations having only minor effects. […] Glu101 is a solvent-accessible amino acid and is proximal to Trp98 in the S3-S4 loop. […] Attenuation of the cap-binding affinity of XeIF4E1a resulting from mutating Thr206 and Thr207 is consistent with our results mentioned above showing significant influence of C-terminal loop residues on binding phosphate and the second nucleotide.
(§6) For human eIF4E1a and eIF4E1b and also for Xenopus eIF4E1a and its mutated forms, measurements were carried out using 0.1 μM protein in 50 mM Hepes/KOH (pH 7.2), 134.5 mM KCl, 0.5 mM EDTA and 1 mM DTT. For Xenopus eIF4E1b(ΔN27), the concentration was 0.2 μM and glycerol was added to the buffer to 10% (v/v) final concentration. […] The gradually increasing concentration of cap analogue quenches protein fluorescence without shifting the spectrum maximum, while at high concentrations, the fluorescence signal of free cap analogue dominates over the fluorescence from other solution components including free eIF4E and eIF4E in complex with cap (Fig. S2a). Fluorescence of measured samples was excited at 280 nm (2.5 nm bandwidth) and detected at 337 nm or 330 nm (4 nm bandwidth), thus reducing the signal originated from the free cap analogues. Measurements were carried out on a LS-55 spectrofluorometer (Perkin Elmer Co.) using freshly prepared proteins, and the fluorescence intensities were corrected for sample dilution and the inner filter effect.
(§7) Equilibrium association constants (Kas) were determined by fitting the theoretical dependence of fluorescence intensity on the total concentration of the cap analogue to the experimental data points, according to the equation described previously (see Ref. [22] and Fig. S2c). […] Along with Kas and the concentration of the active protein [P0^act], other parameters such as fL and ∆f = fPact − fPL are also gained from the fit, where fL represents the fluorescence efficiency of free cap analogue and ∆f represents the difference between the fluorescence efficiencies of the apo-protein and the complex (Fig. S2c).
as §4

[8] = target: T5, X4E1a1’ (K102R) (Xenopus laevis, UniProt P48597, K102R); assay: fluorescence titration, XeIF4E1a mutant; format: binding; conditions: mutant (K102R) of XeIF4E1a
T5 construct: made in house; host or cells: E. coli Rosetta2(DE3)
T5 sequence (P48597 whole entry K102R): as the sequence (P48597 whole entry) above, with K102R counted along it
From the text: as §5, §6, §7, §4

[9] = target: T6, X4E1a2 (E101S/K102R) (Xenopus laevis, UniProt P48597, E101S/K102R); assay: fluorescence titration, XeIF4E1a mutant; format: binding; conditions: mutant (E101S/K102R) of XeIF4E1a
T6 construct: made in house; host or cells: E. coli Rosetta2(DE3)
T6 sequence (P48597 whole entry E101S/K102R): as the sequence (P48597 whole entry) above, with E101S, K102R counted along it
From the text: as §5, §6, §7, §4

[10] = target: T7, X4E1a3 (E101S/K102R/S195A) (Xenopus laevis, UniProt P48597, E101S/K102R/S195A); assay: fluorescence titration, XeIF4E1a mutant; format: binding; conditions: mutant (E101S/K102R/S195A) of XeIF4E1a
T7 construct: made in house; host or cells: E. coli Rosetta2(DE3)
T7 sequence (P48597 whole entry E101S/K102R/S195A): as the sequence (P48597 whole entry) above, with E101S, K102R, S195A counted along it
From the text: as §5, §6, §7, §4

[11] = target: T8, X4E1a4 (E101S/K102R/S195A/M82S) (Xenopus laevis, UniProt P48597, E101S/K102R/M82S/S195A); assay: fluorescence titration, XeIF4E1a mutant; format: binding; conditions: mutant (E101S/K102R/S195A/M82S) of XeIF4E1a
T8 construct: made in house; host or cells: E. coli Rosetta2(DE3)
T8 sequence (P48597 whole entry M82S/E101S/K102R/S195A): as the sequence (P48597 whole entry) above, with M82S, E101S, K102R, S195A counted along it
From the text: as §5, §6, §7, §4

[12] = target: T9, X4E1a6 (E101S/K102R/S195A/M82S/T206L/T207S) (Xenopus laevis, UniProt P48597, E101S/K102R/M82S/S195A/T206L/T207S); assay: fluorescence titration, XeIF4E1a mutant; format: binding; conditions: mutant (E101S/K102R/S195A/M82S/T206L/T207S) of XeIF4E1a
T9 construct: made in house; host or cells: E. coli Rosetta2(DE3)
T9 sequence (P48597 whole entry M82S/E101S/K102R/S195A/T206L/T207S): as the sequence (P48597 whole entry) above, with M82S, E101S, K102R, S195A, T206L, T207S counted along it
From the text: as §5, §6, §7, §4

With `CN(C)c1nc2c(c(=O)[nH]1)[n+](C)cn2[C@@H]1O[C@H](COP(=O)(O)OP(=O)(O)OP(=O)(O)O)[C@@H](O)[C@H]1O` [m^2,2,7GTP] the “ΔΔG^o + glycerol XeIF4E1a” value [1] was 2.844 ± 0.042 kcal/mol, the “ΔΔG^o − glycerol XeIF4E1a” value [1] was 2.897 ± 0.051 kcal/mol and the “Kas + glycerol XeIF4E1a” value [1] was 0.176 ± 0.011 μM^− 1. The “Kas − glycerol XeIF4E1a” value [1] was 0.295 ± 0.021 μM^− 1, the “Ratio Kas (h4E1a) to Kas (X4E1a)” value [2] was 1.22 and the “ΔΔG^o − glycerol heIF4E1a” value [3] was 3.052 ± 0.045 kcal/mol. For the same molecule, the “Kas − glycerol heIF4E1a” value [3] was 0.362 ± 0.008 μM^− 1, the “ΔΔG^o − glycerol heIF4E1b” value [4] was 2.557 ± 0.041 kcal/mol and the “Kas − glycerol heIF4E1b” value [4] was 0.272 ± 0.009 μM^− 1. For the same molecule, the “Ratio Kas (h4E1a) to Kas (h4E1b)” value [5] was 1.33, the “Ratio Kas (X4E1a) to Kas (X4E1bΔN27)” value [6] was 0.70 and the “ΔΔG^o + glycerol XeIF4E1bΔN27” value [6] was 2.00 ± 0.11 kcal/mol. For the same molecule, the “Kas + glycerol XeIF4E1bΔN27” value [6] was 0.253 ± 0.046 μM^− 1, the “Kas X4E1a1” value [7] was 0.350 ± 0.015 µM⁻¹ and the “Kas X4E1a1’” value [8] was 0.268 ± 0.012 µM⁻¹. For the same molecule, the “Kas X4E1a2” value [9] was 0.306 ± 0.046 µM⁻¹, the “Kas X4E1a3” value [10] was 0.193 ± 0.019 µM⁻¹ and the “Kas X4E1a4” value [11] was 0.317 ± 0.054 µM⁻¹. For the same molecule, the “Kas X4E1a6” value [12] was 0.185 ± 0.012 µM⁻¹.

With `CCn1c[n+]([C@@H]2O[C@H](COP(=O)(O)OP(=O)(O)OP(=O)(O)O)[C@@H](O)[C@H]2O)c2nc(N)[nH]c(=O)c21` [et^7GTP] the “fold decrease of association constant relative to m^7GTP” value ([1]; N^7-methyl replaced by ethyl) was “approximately 5 fold”, the “ΔΔG^o + glycerol XeIF4E1a” value [1] was 0.900 ± 0.035 kcal/mol and the “ΔΔG^o − glycerol XeIF4E1a” value [1] was 0.984 ± 0.050 kcal/mol. For the same molecule, the “Kas + glycerol XeIF4E1a” value [1] was 4.97 ± 0.22 μM^− 1, the “Kas − glycerol XeIF4E1a” value [1] was 7.89 ± 0.57 μM^− 1 and the “Ratio Kas (h4E1a) to Kas (X4E1a)” value [2] was 1.65. For the same molecule, the “fold decrease of association constant relative to m^7GTP” value ([3]; N^7-methyl replaced by ethyl) was “approximately 5 fold”, the “ΔΔG^o − glycerol heIF4E1a” value [3] was 0.965 ± 0.045 kcal/mol and the “Kas − glycerol heIF4E1a” value [3] was 13.04 ± 0.31 μM^− 1. The “fold decrease of association constant relative to m^7GTP” value ([4]; N^7-methyl replaced by ethyl) was 3 fold, the “ΔΔG^o − glycerol heIF4E1b” value [4] was 0.639 ± 0.045 kcal/mol and the “Kas − glycerol heIF4E1b” value [4] was 7.34 ± 0.34 μM^− 1. The “Ratio Kas (h4E1a) to Kas (h4E1b)” value [5] was 1.78, the “Ratio Kas (X4E1a) to Kas (X4E1bΔN27)” value [6] was 2.20 and the “fold decrease of association constant relative to m^7GTP” value ([6]; N^7-methyl replaced by ethyl) was 3 fold. For the same molecule, the “ΔΔG^o + glycerol XeIF4E1bΔN27” value [6] was 0.722 ± 0.059 kcal/mol, the “Kas + glycerol XeIF4E1bΔN27” value [6] was 2.26 ± 0.20 μM^− 1 and the “Kas X4E1a1” value [7] was 7.14 ± 0.63 µM⁻¹. The “Kas X4E1a1’” value [8] was 7.38 ± 0.18 µM⁻¹, the “Kas X4E1a2” value [9] was 7.132 ± 0.088 µM⁻¹ and the “Kas X4E1a3” value [10] was 6.23 ± 0.17 µM⁻¹. For the same molecule, the “Kas X4E1a4” value [11] was 8.21 ± 0.51 µM⁻¹ and the “Kas X4E1a6” value [12] was 4.41 ± 0.16 µM⁻¹.

For `Cn1c[n+]([C@@H]2O[C@H](COP(=O)(O)OP(=O)(O)OP(=O)(O)OP(=O)(O)OP(=O)(O)O)[C@@H](O)[C@H]2O)c2nc(N)[nH]c(=O)c21` [m^7Gp5], the “Kas + glycerol XeIF4E1a” value [1] was 230 ± 31 μM^− 1, the “Kas − glycerol XeIF4E1a” value [1] was 378 ± 44 μM^− 1 and the “Ratio Kas (h4E1a) to Kas (X4E1a)” value [2] was 1.44. The “Kas − glycerol heIF4E1a” value [3] was 547 ± 31 μM^− 1, the “Kas − glycerol heIF4E1b” value [4] was 146.6 ± 9.9 μM^− 1 and the “Ratio Kas (h4E1a) to Kas (h4E1b)” value [5] was 3.73. For the same molecule, the “Ratio Kas (X4E1a) to Kas (X4E1bΔN27)” value [6] was 3.50, the “Kas + glycerol XeIF4E1bΔN27” value [6] was 65.6 ± 4.2 μM^− 1 and the “Kas X4E1a1” value [7] was 279 ± 34 µM⁻¹. The “Kas X4E1a1’” value [8] was 382 ± 16 µM⁻¹, the “Kas X4E1a2” value [9] was 280 ± 11 µM⁻¹ and the “Kas X4E1a6” value [12] was 190 ± 6 µM⁻¹.
